We go through twelve compounds from ChEMBL document CHEMBL6120950, “Deep-Learning-Driven Discovery of SN3-1, a Potent NLRP3 Inhibitor with Therapeutic Potential for Inflammatory Diseases” (J Med Chem, 2024).

The source made the active and inactive calls. The rule behind the calls is not given here.

Data set [1] is described as follows: Acute toxicity in mouse assessed as mortality at 2000 mg/kg, po measured on day 1. The format is organism-based. Particulars: in vivo, 24 h, time 1 day.
Data set [2] is described as follows: Acute toxicity in C57BL/6J mouse assessed as mortality at 2000 mg/kg, po measured for 1 week. The format is organism-based. As to conditions: in vivo, 168 h, time 1 weeks.
Data set [3] in a line: Acute toxicity in po dosed C57BL/6J mouse assessed as lethal dose at measured for 1 week. The class given is organism-based. Particulars: in vivo, time 1 weeks.
Data set [4] in a line: Chronic toxicity in mouse assessed as reduction in body weight at 300 mg/kg, po administered every day for 12 days. As to conditions: in vivo, 288 h, time 12 day. The class given is organism-based.
Data set [5] can be described thus: Chronic toxicity in ICR mouse assessed as change in nitrogen level at 300 mg/kg, po administered every day for 12 days. The format is organism-based. As to conditions: in vivo, 288 h, time 12 day.
The nature of data set [6]: Chronic toxicity in ICR mouse assessed as change in uric acid level at 300 mg/kg, po administered every day for 12 days. The class given is organism-based. Particulars: in vivo, 288 h, time 12 day.
Data set [7] can be described thus: Chronic toxicity in ICR mouse assessed as change in creatinine level at 300 mg/kg, po administered every day for 12 days. The format is organism-based. Particulars: in vivo, 288 h, time 12 day.
A short description of data set [8]: Chronic toxicity in ICR mouse assessed as change in AST level at 300 mg/kg, po administered every day for 12 days. The class given is organism-based. As to conditions: in vivo, 288 h, time 12 day.
Data set [9] in a line: Chronic toxicity in ICR mouse assessed as change in ALT level at 300 mg/kg, po administered every day for 12 days. The class given is organism-based. As to conditions: in vivo, 288 h, time 12 day.
For a further data set, the system named is BMDM. As to the kind of experiment: Induction ROS production in human BMDM cells by MitoSOX probe based analysis. The class given is functional, cell-based.
Data set [10] in a line: Microsomal stability in human liver microsome assessed half life. As to conditions: liver microsomes. The format is ADME. (Microsomes from liver hold many membrane-bound enzymes, among them those of drug oxidation.)
Data set [11] in a line: Cmax in ICR mouse at 1 mg/kg, iv measured upto 24 hrs by LC-MS/MS analysis. The format is ADME, organism-based. Particulars: in vivo.
Data set [12] can be described thus: Cmax in ICR mouse at 10 mg/kg, po measured upto 24 hrs by LC-MS/MS analysis. The format is ADME, organism-based. As to conditions: in vivo.
The nature of data set [13]: Tmax in ICR mouse at 1 mg/kg, iv measured upto 24 hrs by LC-MS/MS analysis. As to conditions: in vivo. The class given is ADME, organism-based.
The nature of data set [14]: Tmax in ICR mouse at 10 mg/kg, po measured upto 24 hrs by LC-MS/MS analysis. The class given is ADME, organism-based. As to conditions: in vivo.
The nature of data set [15]: Half life in ICR mouse at 1 mg/kg, iv measured upto 24 hrs by LC-MS/MS analysis. As to conditions: in vivo. The class given is ADME, organism-based.
The nature of data set [16]: Half life in ICR mouse at 10 mg/kg, po measured upto 24 hrs by LC-MS/MS analysis. The class given is ADME, organism-based. As to conditions: in vivo.
The nature of data set [17]: AUC (0 to t) in ICR mouse at 1 mg/kg, iv measured upto 24 hrs by LC-MS/MS analysis. The class given is ADME, organism-based. Particulars: in vivo.
Data set [18] is described as follows: AUC (0 to t) in ICR mouse at 10 mg/kg, po measured upto 24 hrs by LC-MS/MS analysis. As to conditions: in vivo. The format is ADME, organism-based.
Data set [19] can be described thus: Clearance in ICR mouse at 1 mg/kg, iv measured upto 24 hrs by LC-MS/MS analysis. The format is ADME, organism-based. Particulars: in vivo.
Data set [20] is described as follows: MRT (0 to t) in ICR mouse at 1 mg/kg, iv measured upto 24 hrs by LC-MS/MS analysis. Particulars: in vivo. The format is ADME, organism-based.
The nature of data set [21]: MRT (0 to t) in ICR mouse at 10 mg/kg, po measured upto 24 hrs by LC-MS/MS analysis. The class given is ADME, organism-based. As to conditions: in vivo.
Data set [22] is described as follows: Volume of distribution at steady state in ICR mouse at 1 mg/kg, iv measured upto 24 hrs by LC-MS/MS analysis. The class given is ADME, organism-based. As to conditions: in vivo, read-out: Vdss.
A short description of data set [23]: Oral bioavailability in ICR mouse at 10 mg/kg measured upto 24 hrs by LC-MS/MS analysis. The class given is ADME, organism-based. As to conditions: in vivo.
Data set [24] concerns Mus musculus. The experiment in a line: Anti-inflammatory activity in MSU-induced acute gouty arthritis ICR mouse model assessed as reduction in ankle swelling at 30 mg/kg, po administered for 7 days. Particulars: time 7.0 day. The format is functional, organism-based.
Data set [25] has as its system Mus musculus. As to the kind of experiment: Antialzheimer activity against scopolamine-induced cognitive impairment in C57BL/6 mouse assessed as increase in number of platform crossing at 30 mg/kg, po measured upto 14 days by morris water maze test. As to conditions: time <= 14.0 day. The class given is functional, organism-based.
Data set [26] is described as follows: Toxicity in C57BL/6 mouse assessed as total distance travelled at 30 mg/kg, po measured up to 7 days by open field test. The class given is organism-based. As to conditions: in vivo, 168 h, time < 7 day.
In data set [27] the target is NACHT, LRR and PYD domains-containing protein 3 (Homo sapiens, UniProt Q96P20). As to the kind of experiment: Inhibition of NLRP3 inflammasome pathway in human THP-1 cells assessed as LPS-stimulated IL-1beta release pretreated with LPS for 3 hrs followed by compound addition for 30 mins prior to MSU addition and measured after 30 mins by ELISA. The format is cell-based. (In general: In an ELISA, binding on a coated surface is turned into a signal by an enzyme label.)

The next data set has as its system HEK-293T. As to the kind of experiment: Cytotoxicity against human HEK293T cells assessed as effect on cell viability at 50 uM incubated for 24 hrs by CCK-8 assay. The class given is toxicity, cell-based. On the technique in general: Formazan colour is commonly taken as a measure of viable cells.
A short description of data set [28]: Glutathione reactivity in PBS buffer. The class given is physicochemical.

NACHT, LRR and PYD domains-containing protein 3, sequence (Q96P20 whole entry, the tested form may be a part): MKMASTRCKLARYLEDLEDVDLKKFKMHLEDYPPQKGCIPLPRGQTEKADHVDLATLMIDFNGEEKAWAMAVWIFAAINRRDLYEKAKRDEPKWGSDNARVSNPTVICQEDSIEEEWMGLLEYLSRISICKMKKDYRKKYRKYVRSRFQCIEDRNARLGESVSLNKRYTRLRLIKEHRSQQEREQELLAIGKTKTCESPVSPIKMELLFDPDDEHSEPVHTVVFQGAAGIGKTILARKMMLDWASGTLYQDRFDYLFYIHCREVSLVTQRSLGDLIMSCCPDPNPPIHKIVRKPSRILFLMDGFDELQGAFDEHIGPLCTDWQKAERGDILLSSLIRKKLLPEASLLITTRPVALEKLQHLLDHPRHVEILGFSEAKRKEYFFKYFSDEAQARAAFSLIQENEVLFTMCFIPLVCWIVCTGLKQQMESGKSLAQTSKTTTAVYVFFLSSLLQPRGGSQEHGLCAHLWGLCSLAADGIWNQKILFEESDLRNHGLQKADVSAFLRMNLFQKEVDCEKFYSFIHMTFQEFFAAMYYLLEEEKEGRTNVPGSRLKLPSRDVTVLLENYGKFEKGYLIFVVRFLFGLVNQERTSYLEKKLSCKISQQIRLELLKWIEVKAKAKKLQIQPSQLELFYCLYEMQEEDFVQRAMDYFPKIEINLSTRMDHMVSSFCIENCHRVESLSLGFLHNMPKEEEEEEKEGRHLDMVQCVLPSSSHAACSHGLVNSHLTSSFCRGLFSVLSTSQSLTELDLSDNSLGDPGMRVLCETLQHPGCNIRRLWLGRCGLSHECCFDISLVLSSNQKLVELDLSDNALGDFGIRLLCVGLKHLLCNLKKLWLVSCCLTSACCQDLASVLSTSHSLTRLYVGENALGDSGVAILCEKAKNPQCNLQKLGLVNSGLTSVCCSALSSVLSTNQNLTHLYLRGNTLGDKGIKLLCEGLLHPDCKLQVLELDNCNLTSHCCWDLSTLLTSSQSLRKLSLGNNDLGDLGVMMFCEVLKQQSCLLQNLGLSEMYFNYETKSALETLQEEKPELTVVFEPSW

Usually LD50 stands for the dose at which mortality reaches 50%. The half-life is how long it takes for the measured level to halve. High values mean slow decline, low ones rapid decline. Broadly, the Cmax is the highest concentration seen after dosing. As usually defined, the Tmax is the time at which the peak concentration occurs. What is called AUC(0-t) is exposure summed from dosing to a finite time, without extrapolation to infinity. The low end stands for low exposure, the high end for high exposure. The term clearance denotes a measure of how efficiently the substance is removed, as volume per time. Usually MRT last stands for a mean duration of stay, worked out from the concentration-time curve. The bioavailability is dose-corrected exposure relative to a reference, in per cent. The low end stands for little systemic uptake, the high end for much systemic uptake. `CC(C)(O)c1csc(S(=O)(=O)NC(=O)Nc2c(-c3cccc(Cl)c3Cl)ccc3c2CCC3)c1`: the Activity entry in data set [1] is recorded as “Toxic”; in [2] it was “Non-toxic”; in data set [4] it was “Non-toxic”; in [5], “Non-toxic”; in data set [6] it was “Non-toxic”; in data set [7], “Non-toxic”. In addition, the Activity entry in data set [8], in data set [9] and in [26] was “Non-toxic” throughout. The LD50 at 168 h in data set [3] was found to be 2000 mg/kg. For the same compound, the outcome with BMDM, with Mus musculus [24] and in the data set with Mus musculus [25] was Active. In addition, the half-life in data set [10] was 1.57 h; in data set [15], 2.57 h; in data set [16] it was 1.86 h. Further, the Cmax in [11] was determined as 3920 ng/mL; in data set [12], 7120 ng/mL. The Tmax was 4.98 min in data set [13] and 0.5 h in [14]. Also, the AUC(0-t) at 24 h was determined as 2610 ng·h/mL in data set [17] and 9710 ng·h/mL in [18]. The clearance in data set [19] is 6.1 mL/min/kg. For the same compound, the MRT last at 24 h in data set [20] amounted to 1.75 h; in data set [21], 1.73 h. Further, the Vd in data set [22] is 0.638 L/kg. The bioavailability in [23] was 36.8%.
Usually IC50 stands for the midpoint of a concentration-inhibition curve. For `CC(C)(O)c1coc(S(=O)(=O)NC(=O)Nn2ccc3cccnc32)c1`, the IC50 in [27] was > 1000 nM.
As to `CC(C)(O)c1coc(S(=O)(=O)NC(=O)Nc2c(-c3ccc4ccccc4c3)ccc3c2CCC3)c1`, the Activity result in the data set on HEK-293T is listed as “Non-toxic”. The Drug metabolism result in [28] is recorded as “metabolite_detected”.
Consider `C=C(C)c1csc(SCC(=O)Nc2c(-c3cccc(Cl)c3Cl)ccc3c2CCC3)c1`, for which, in data set [27], the IC50 is > 1000 nM.
With `CC(C)(O)c1coc(S(=O)(=O)NC(=O)Nc2cccc3c2CCC3)c1`, in data set [27], the IC50 is > 1000 nM.
Regarding `CC(C)(O)c1coc(S(=O)(=O)NC(=O)NC2CCCc3ccccc32)c1` (stereo not given), the IC50 in data set [27] was > 1000 nM.
Consider `CC(C)(O)c1coc(S(=O)(=O)NC(=O)Nc2c(-c3ccc(N4CCOCC4)cc3)ccc3c2CCC3)c1`, for which the IC50 in data set [27] was > 1000 nM.
`COC(=O)c1csc(CNC(=O)Nc2c(-c3cccc(Cl)c3Cl)ccc3c2CCC3)c1`: the IC50 in [27] is > 1000 nM.
Still for that read-out and setting: the same measure for `CC(C)(O)c1coc(S(=O)(=O)NC(=O)NC2c3ccccc3-c3ccccc32)c1`: > 1000 nM; for `CC(C)(O)c1coc(S(=O)(=O)NC(=O)Nc2c3c(cc(Br)c2OC2CCCCC2)CCC3)c1`: > 1000 nM.
Regarding `CC(C)(O)c1coc(S(=O)(=O)NC(=O)Nc2c(-c3cccc(Cl)c3Cl)ccc3c2CCC3)c1`, the Activity entry in the data set on HEK-293T is on record as “Non-toxic”. Also, the Drug metabolism entry in data set [28] is “metabolite_detected”.
Consider `CC(=O)c1csc(NC(=O)Nc2c(-c3cccc(Cl)c3Cl)ccc3c2CCC3)c1`, for which the IC50 in data set [27] was > 1000 nM.
